Test results taken from patent publication US20100015126A1, “Methods of Binding of Cross-Beta Structures By Chaperones” (priority 2006, published 2010).

Test system: HUVECs
Assay: Adhesion of HUVECs to immobilized misfolded proteins under influence of BiP (LDH read-out)
Format: cell-based, human
Settings: for Number of adhered HUVECs after preincubation of coated protein with BiP: BiP approximately 200 μg/ml
Description: HUVECs are primary endothelial cells (ECs), isolated from umbilical cords using 0.1% collagenase (Sigma, C0130, 100 mg, dissolved in 100 ml M199 medium supplemented with 10% FCS (Gibco 10106-169) and Penicillin-Streptomycin (P/S, Gibco, 15140-122)), according to widespread used standard procedures known to a person skilled in the art. HUVECs have the typical features of ECs, e.g. cobblestone morphology and von Willebrand factor storage in Weibel-Palade bodies. HUVECs can regularly be cultured up to passage 5; beyond passage 5 HUVECs loose typical EC markers. The isolation is described here in brief. The umbilical cord is washed for less than 3 minutes in ethanol and subsequently with PBS. The vein is connected to canules and flushed with 10 ml PBS, followed by loading with the 0.1% collagenase solution. After a 15 minute-incubation at 37° C., the detached endothelial cell suspension is recovered by flushing the vein with 10 ml medium which is subsequently added to the collagenase solution. The EC suspension is centrifuged for 5 minutes at room temperature, at low g-force. Supernatant is discarded and the cell pellet is resuspended in 5 ml ‘rich medium’ (EGM-2; Endothelial basal medium (EBM-2, Cambrex, CC-3156) and Singlequots containing supplements for endothelial cells (Cambrex, CC-4176)). Cells (passage 0, P0) are seeded in a culture flask coated with 0.5% gelatin (Sigma, G1393). To facilitate the adhesion of the endothelial cells, human fibronectin is added to the cell culture at a final concentration of 2 μg/ml. EC's are cultured at 37° C., at 5% CO2. The cell culture medium is refreshed every 2-3 days up to when the cells grow to confluency. Then, with the addition of trypsin-EDTA, the cells are detached from the flask, centrifuged at low g-force, resuspended in rich medium and seeded in larger 0.5% gelatin-precoated cell culture flasks.
In 96-wells plates (Immulon high-binding plates, Thermo Labsystems 3355) proteins, i.e. BSA-AGE, control BSA, IgIV Gammagard, crossbeta dIgIV-86 at 5 μg/ml, 10 μg/ml misfolded oxLDL, or gelatin (Sigma G1393, 2% solution in H2O or PBS, positive control for adhesion to ECs) were coated using 100 μl solutions, in six wells for each condition. Following incubation for 2 hours at 37° C. the solutions were discarded and the wells blocked for 1 hour at 37° C. with 100 μl/well of 1% polyvinyl-pyrrolidone (PVP, Sigma P5288) in PBS, filter (0.22 μm) sterilized. […] Subsequently, the block solution was discarded. Next, the plates were incubated with 40 μl RPMI 1640 medium (Gibco, 52400) and 10 μl of the potential inhibitor, i.e. recombinant human BiP at approximately 200 μg/ml final concentration. HUVECs were obtained by trypsinization. […] The absorbance at 490 nm was measured on a Versamax microplate reader at various time points.

BSA-AGE
Number of adhered HUVECs after preincubation of coated protein with BiP: hardly increase
Adhesion of HUVECs to coated protein (without BiP, LDH activity after lysis): to a similar extent as to gelatin

native BSA: non-modified bovine serum albumin control
Number of adhered HUVECs after preincubation of coated protein with BiP: hardly increase
